Results as given in ChEMBL document CHEMBL1141654, “Protective effects of amide constituents from the fruit of Piper chaba on D-galactosamine/TNF-alpha-induced cell death in mouse hepatocytes” (2008).

Assays:
Type in all cases: functional
[1] = tested on: Hepatocyte; test: Inhibition of D-galactosamine/TNFalpha-induced cell death in ddY mouse hepatocytes at 1 uM after 20 hrs by MTT assay
[2] = tested on: Hepatocyte; test: Inhibition of D-galactosamine/TNFalpha-induced cell death in ddY mouse hepatocytes at 3 uM after 20 hrs by MTT assay
[3] = tested on: Hepatocyte; test: Inhibition of D-galactosamine/TNFalpha-induced cell death in ddY mouse hepatocytes at 30 uM after 20 hrs by MTT assay
[4] = tested on: Hepatocyte; test: Inhibition of D-galactosamine/TNFalpha-induced cell death in ddY mouse hepatocytes at 10 uM after 20 hrs by MTT assay
[5] = tested on: Mus musculus; test: Inhibition of D-galactosamine/LPS-induced TNFalpha level in ddY mouse serum at 10 mg/kg, po by ELISA
[6] = tested on: Mus musculus; test: Inhibition of D-galactosamine/LPS-induced liver injury in ddY mouse assessed as serum GOT level at 10 mg/kg, po
[7] = tested on: Mus musculus; test: Inhibition of D-galactosamine/LPS-induced liver injury in ddY mouse assessed as serum GPT level at 10 mg/kg, po
[8] = tested on: Hepatocyte; test: Inhibition of D-galactosamine/TNFalpha-induced cell death in ddY mouse hepatocytes assessed as cell viability at 10 uM after 20 hrs by MTT assay; conditions: read-out: Activity
[9] = tested on: Hepatocyte; test: Inhibition of D-galactosamine-induced cell death in ddY mouse hepatocytes assessed as cell viability at 10 uM after 44 hrs by MTT assay; conditions: read-out: Activity
[10] = tested on: Hepatocyte; test: Inhibition of D-galactosamine-induced cell death in ddY mouse hepatocytes assessed as cell viability at 30 uM after 44 hrs by MTT assay; conditions: read-out: Activity
[11] = tested on: L929; test: Inhibition of TNF-alpha-induced cell death in […] assessed as cell viability at 30 uM after 20 hrs by MTT assay; conditions: L929, 20 h, read-out: Activity
[12] = tested on: Mus musculus; test: Inhibition of D-galactosamine/LPS-induced TNFalpha level in ddY mouse serum at 5 mg/kg, po by ELISA
[13] = tested on: Hepatocyte; test: Inhibition of D-galactosamine/TNFalpha-induced cell death in ddY mouse hepatocytes assessed as cell viability at 100 uM after 20 hrs by MTT assay; conditions: read-out: Activity
[14] = tested on: Mus musculus; test: Inhibition of D-galactosamine/LPS-induced TNFalpha level in ddY mouse serum at 20 mg/kg, po by ELISA
[15] = tested on: L929; test: Inhibition of TNF-alpha-induced cell death in […] assessed as cell viability at 100 uM after 20 hrs by MTT assay; conditions: L929, 20 h, read-out: Activity
[16] = tested on: Mus musculus; test: Inhibition of D-galactosamine/LPS-induced liver injury in ddY mouse assessed as serum GPT level at 2.5 mg/kg, po
[17] = tested on: Mus musculus; test: Inhibition of D-galactosamine/LPS-induced liver injury in ddY mouse assessed as serum GOT level at 5 mg/kg, po
[18] = tested on: Mus musculus; test: Inhibition of D-galactosamine/LPS-induced liver injury in ddY mouse assessed as serum GOT level at 2.5 mg/kg, po
[19] = tested on: Mus musculus; test: Inhibition of D-galactosamine/LPS-induced liver injury in ddY mouse assessed as serum GPT level at 5 mg/kg, po
[20] = tested on: Hepatocyte; test: Inhibition of D-galactosamine-induced cell death in ddY mouse hepatocytes assessed as cell viability at 100 uM after 44 hrs by MTT assay; conditions: read-out: Activity
[21] = tested on: L929; test: Inhibition of TNF-alpha-induced cell death in […] assessed as cell viability at 10 uM after 20 hrs by MTT assay; conditions: L929, 20 h, read-out: Activity
[22] = tested on: Hepatocyte; test: Inhibition of D-galactosamine/TNFalpha-induced cell death in ddY mouse hepatocytes assessed as cell viability at 30 uM after 20 hrs by MTT assay; conditions: read-out: Activity

Row | Compound | inhibition at 1 µM [1] [%] | inhibition at 3 µM [2] [%] | inhibition at 30 µM [3] [%] | inhibition at 10 µM [4] [%] | also measured
1 | CCCCC/C=C\CCCCCCCC/C=C/C=C/C(=O)NCC(C)C | 10 | 3 | 27 | 19 | 
2 | CCCCCCCCCCCCC/C=C/C=C/C(=O)NCC(C)C | 15 | 37 | 43 | 41 | 
3 | CCCCCCC/C=C/C=C/C(=O)NCC(C)C | 12 | 21 | 44 | 31 | 
4 | CC(C)CNC(=O)/C=C/CCc1ccc2c(c1)OCO2 [4,5-DIHYDROPIPERLONGUMININE] | 34 | 43 | 66 | 43 | 
5 | CC(C)CNC(=O)/C=C/C=C/CCCCCCCC/C=C/c1ccc2c(c1)OCO2 [BRACHYSTAMIDE B] |  | 22 | -6 | 11 | 
6 | CC(C)CNC(=O)/C=C/C=C/CCCCCC/C=C/c1ccc2c(c1)OCO2 [GUINEENSINE] |  | 26 | 12 | 33 | 
7 | C[C@]12CCC(=O)C=C1CC[C@@H]1[C@@H]2[C@@H](O)C[C@@]2(C)[C@H]1CC[C@]2(O)C(=O)CO [HYDROCORTISONE] |  |  |  |  | inhibition in vivo at 10 mg/kg [5]: 92.1%; inhibition in vivo at 10 mg/kg [6]: 94.2%; inhibition in vivo at 10 mg/kg [7]: 97.7%
8 | COC(=O)/C=C/C=C/c1ccc2c(c1)OCO2 [METHYL PIPERATE] |  | 18 | 21 | 29 | 
9 | CCCCC/C=C/C=C/C(=O)NCC(C)C [PELLITORIN] |  | 19 | 42 | 25 | 
10 | O=C(/C=C/CCc1ccc2c(c1)OCO2)N1CCCCC1 [PIPERANINE] |  | 31 | 53 | 50 | 
11 | O=C1C=CCCN1C(=O)CCc1ccccc1 [PIPERCHABAMIDE A] |  | 29 | 70 | 32 | 
12 | O=C(/C=C/CCCCCC/C=C/c1ccc2c(c1)OCO2)N1CCCCC1 [PIPERCHABAMIDE B] |  | 63 | 78 | 74 | 
13 | O=C(/C=C/C=C/CCCCCC/C=C/c1ccc2c(c1)OCO2)N1CCCCC1 [PIPERCHABAMIDE C] |  | 42 | 68 | 52 | 
14 | CC(C)CNC(=O)/C=C/CCCCCC/C=C/c1ccc2c(c1)OCO2 [PIPERCHABAMIDE D] |  | 57 | 37 | 77 | 
15 | CCC(C)CNC(=O)/C=C/C=C/c1ccc2c(c1)OCO2 (stereo not given) [PIPERCHABAMIDE E] |  | 34 | 98 | 71 | 
16 | O=C(/C=C/C=C/c1ccc2c(c1)OCO2)N1CCCCC1 [PIPERINE] |  | 23 | 68 | 46 | viability at 10 µM [8]: 72.4%; viability at 10 µM [9]: 40.6%; inhibition in vivo at 10 mg/kg [5]: 9.2%; inhibition in vivo at 10 mg/kg [6]: 96.1%; viability at 30 µM [10]: 36.5%; viability at 30 µM [11]: 66.2%; inhibition in vivo at 10 mg/kg [7]: 94.3%; inhibition in vivo at 5 mg/kg [12]: 15.7%; viability at 100 µM [13]: 84.3%; inhibition in vivo at 20 mg/kg [14]: -2.2%; viability at 100 µM [15]: 92.2%; inhibition in vivo at 2.5 mg/kg [16]: 23.2%; inhibition in vivo at 5 mg/kg [17]: 50.7%; inhibition in vivo at 2.5 mg/kg [18]: 0.3%; inhibition in vivo at 5 mg/kg [19]: 51.1%; viability at 100 µM [20]: 29.2%; viability at 10 µM [21]: 64%; viability at 30 µM [22]: 76.1%
17 | CC(C)CNC(=O)/C=C/C=C/c1ccc2c(c1)OCO2 [PIPERLONGUMININE] | 27 | 50 | 66 | 54 | 
18 | O=C(/C=C/CCCC/C=C/c1ccc2c(c1)OCO2)N1CCCCC1 [PIPERNONALINE] |  | 17 | 48 | 31 | 
19 | O=Cc1ccc2c(c1)OCO2 [PIPERONAL] |  | 20 | 39 | 23 | 
20 | O=C(CCCCCC/C=C/c1ccc2c(c1)OCO2)N1CCCCC1 [PIPERROLEIN B] | 20 | 29 | 64 | 33 | 
21 | O=C(/C=C/C=C/CCCC/C=C/c1ccc2c(c1)OCO2)N1CCCCC1 [PIPERUNDECALIDIENE] | 27 | 40 | 58 | 49 | 
22 | CC(C)CNC(=O)/C=C/C=C/CC/C=C/c1ccc2c(c1)OCO2 [RETROFRACTAMIDE A] | 40 | 32 | 60 | 35 | 
23 | CC(C)CNC(=O)/C=C/C=C/CCCC/C=C/c1ccc2c(c1)OCO2 [RETROFRACTAMIDE B] | 32 | 54 | 26 | 51 | 
24 | CC(C)CNC(=O)/C=C/CCCC/C=C/c1ccc2c(c1)OCO2 [RETROFRACTAMIDE C] | 30 | 51 | 37 | 31 | 
